Measurements taken from ChEMBL document CHEMBL1201862, “PubChem BioAssay data set” (2004).
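Test compounds were applied to cells in 96-well plates for 48 hours at 5 doses. GI50 is the concentration that inhibits growth by half.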 Active and inactive are the calls of the source. No stated cut-off is given here; in the data, active = GI50 up to about 1.1 µM and inactive = higher.

How the values were obtained:
Assay in all cases: NCI-60 cell line screen, 48 h
SN12C = system: SN12C
A498 = system: A498
PC-3 = system: PC-3
DU-145 = system: DU-145
SW-620 = system: SW-620
CCRF-CEM = system: CCRF-CEM
SNB-75 = system: SNB-75
A549 = system: A549
IGROV-1 = system: IGROV-1
HOP-92 = system: HOP-92
Malme-3M = system: Malme-3M
NCI-H460 = system: NCI-H460
NCI-H23 = system: NCI-H23
MDA-MB-435 = system: MDA-MB-435
SK-MEL-28 = system: SK-MEL-28
SF-539 = system: SF-539
UACC-62 = system: UACC-62
OVCAR-4 = system: OVCAR-4
SF-295 = system: SF-295
SR = system: SR

SMILES | GI50 (SN12C) | GI50 (A498) | GI50 (PC-3) | GI50 (DU-145) | GI50 (SW-620) | GI50 (CCRF-CEM) | GI50 (SNB-75) | GI50 (A549) | GI50 (IGROV-1) | GI50 (HOP-92) | GI50 (Malme-3M) | GI50 (NCI-H460) | GI50 (NCI-H23) | GI50 (MDA-MB-435) | GI50 (SK-MEL-28) | GI50 (SF-539) | GI50 (UACC-62) | GI50 (OVCAR-4) | GI50 (SF-295) | GI50 (SR)
O=C1OC(CCCN2CCCCC2)(c2ccccc2)CC12CCCC2 (stereo not given) | > 100 µM (inactive) | 57.4 µM (inactive) | > 100 µM (inactive) | > 100 µM (inactive) | > 100 µM (inactive) | 54.5 µM (inactive) | 23 µM (inactive) | > 100 µM (inactive) | > 100 µM (inactive) | 2.1 µM (inactive) | 35.6 µM (inactive) | 89.1 µM (inactive) | > 89.7 µM (inactive) | 67.8 µM (inactive) | 22.3 µM (inactive) | 49.1 µM (inactive) | 61.4 µM (inactive) | 97.9 µM (inactive) | > 84.9 µM (inactive) | 34.4 µM (inactive)
O=C(O)c1ccc(Nc2cnc3ccc(C(F)(F)F)cc3n2)cc1 | 25.5 µM (inactive) | 23.8 µM (inactive) | 17.7 µM (inactive) | 23.9 µM (inactive) | 20.9 µM (inactive) | 15.6 µM (inactive) | 11.7 µM (inactive) | 13.4 µM (inactive) | 12.4 µM (inactive) | 15.5 µM (inactive) | 32.4 µM (inactive) | 28.1 µM (inactive) | 17 µM (inactive) | 31.6 µM (inactive) | 34 µM (inactive) | 23.9 µM (inactive) | 14 µM (inactive) | 18.9 µM (inactive) | 19.6 µM (inactive) | 20.4 µM (inactive)
COC1(OC)N=C(N)C2(C#N)C3(C(=O)N(C(C)C)N=C3C)C12C#N (stereo not given) | > 100 µM (inactive) | > 100 µM (inactive) | > 100 µM (inactive) | > 100 µM (inactive) | > 100 µM (inactive) | > 100 µM (inactive) | > 100 µM (inactive) | > 100 µM (inactive) | > 100 µM (inactive) | > 100 µM (inactive) | > 100 µM (inactive) | > 100 µM (inactive) | > 100 µM (inactive) | > 100 µM (inactive) | > 100 µM (inactive) | > 100 µM (inactive) | > 100 µM (inactive) | > 100 µM (inactive) | > 100 µM (inactive) | > 100 µM (inactive)
COC(=O)C1(C(=O)OC)CC(=O)c2c(OC(=O)c3cccc(OC)c3C#N)ccc(OC(=O)c3cccc(OC)c3C#N)c2C1 | > 100 µM (inactive) | 31.3 µM (inactive) | > 100 µM (inactive) | > 100 µM (inactive) | > 100 µM (inactive) | > 100 µM (inactive) | > 100 µM (inactive) | > 100 µM (inactive) | > 100 µM (inactive) | 83.8 µM (inactive) | > 100 µM (inactive) | > 100 µM (inactive) | > 100 µM (inactive) | > 100 µM (inactive) | > 100 µM (inactive) | > 100 µM (inactive) | > 100 µM (inactive) | > 100 µM (inactive) | > 100 µM (inactive) | 26.9 µM (inactive)
CC(C)(C)NCc1cc(Nc2ccnc3cc(Cl)ccc23)cc(-c2ccc(Cl)cc2)c1O | 3.11 µM (inactive) | 2.94 µM (inactive) | 1.99 µM (inactive) | 4.53 µM (inactive) | 2.26 µM (inactive) | 0.809 µM (active) | 2.02 µM (inactive) | 5.4 µM (inactive) | 2.02 µM (inactive) | 1.87 µM (inactive) | 1.84 µM (inactive) | 2.03 µM (inactive) | 3.64 µM (inactive) | 1.91 µM (inactive) | 1.72 µM (inactive) | 1.85 µM (inactive) | 1.92 µM (inactive) | 3.36 µM (inactive) | 2.5 µM (inactive) | 1.21 µM (inactive)
COC(=O)c1ccc2c(c1)CC1(C2)Cc2cc3c(c(C(=O)OC)c2C1)CCCC3 (stereo not given) | 50.1 µM (inactive) | 32.5 µM (inactive) | 54.1 µM (inactive) | > 100 µM (inactive) | > 100 µM (inactive) | 48.6 µM (inactive) | 77.6 µM (inactive) | 83.9 µM (inactive) | > 100 µM (inactive) | 22.4 µM (inactive) | > 100 µM (inactive) | 96.6 µM (inactive) | 65.5 µM (inactive) | 84.1 µM (inactive) | > 100 µM (inactive) | > 100 µM (inactive) | 37.1 µM (inactive) | 50.5 µM (inactive) | 50 µM (inactive) | 69.5 µM (inactive)
CCOC(=O)C(=O)C(CCC(=O)c1ccc2ccccc2c1O)C(=O)OCC (stereo not given) | > 100 µM (inactive) | > 100 µM (inactive) | > 100 µM (inactive) | > 100 µM (inactive) | > 100 µM (inactive) | > 100 µM (inactive) | > 100 µM (inactive) | > 100 µM (inactive) | > 100 µM (inactive) | > 100 µM (inactive) | > 100 µM (inactive) | > 100 µM (inactive) | > 100 µM (inactive) | > 100 µM (inactive) | > 100 µM (inactive) | > 100 µM (inactive) | > 100 µM (inactive) | > 100 µM (inactive) | > 100 µM (inactive) | > 100 µM (inactive)
CS(=O)(=O)C(=Cc1ccccc1Cl)S(C)(=O)=O | > 100 µM (inactive) | > 100 µM (inactive) | > 100 µM (inactive) | > 100 µM (inactive) | > 66.4 µM (inactive) | 25.5 µM (inactive) | > 100 µM (inactive) | > 100 µM (inactive) | > 100 µM (inactive) | > 100 µM (inactive) | > 100 µM (inactive) | > 100 µM (inactive) | > 100 µM (inactive) | > 27.8 µM (inactive) | > 100 µM (inactive) | > 100 µM (inactive) | 24.4 µM (inactive) | > 100 µM (inactive) | > 46.5 µM (inactive) | > 100 µM (inactive)
C=C/C(C)=C\CC1[C@](C)(O)CC[C@H]2C(C)(C)C(=O)CC[C@]12C (stereo not given in full) | > 100 µM (inactive) | > 100 µM (inactive) | 34.6 µM (inactive) | > 100 µM (inactive) | > 100 µM (inactive) | 46.6 µM (inactive) | > 100 µM (inactive) | 62.7 µM (inactive) | > 100 µM (inactive) | > 100 µM (inactive) | > 100 µM (inactive) | 50.6 µM (inactive) | 40.6 µM (inactive) | 70.5 µM (inactive) | > 100 µM (inactive) | > 100 µM (inactive) | > 100 µM (inactive) | 54.3 µM (inactive) | 81.7 µM (inactive) | 24.6 µM (inactive)
CNc1nc2c(C)ccc3nc(N(C)C)[nH]c3c-2n1 | 36.1 µM (inactive) | 85.1 µM (inactive) | 46.9 µM (inactive) | 42.2 µM (inactive) | 47.3 µM (inactive) | 81.8 µM (inactive) | 41.8 µM (inactive) | 39.9 µM (inactive) | 47.8 µM (inactive) | > 100 µM (inactive) | 31.1 µM (inactive) | 26.2 µM (inactive) | 32.9 µM (inactive) | 50.8 µM (inactive) | 52 µM (inactive) | 24.8 µM (inactive) | 68.7 µM (inactive) | 19.5 µM (inactive) | 55.5 µM (inactive) | 43.8 µM (inactive)
O=c1[nH]c(=O)n(C2CC(O)C(CO)O2)c2nc3cc4ccccc4cc3nc12 (stereo not given) | > 100 µM (inactive) | > 100 µM (inactive) | > 100 µM (inactive) | > 100 µM (inactive) | > 100 µM (inactive) | 36.6 µM (inactive) | 74.8 µM (inactive) | > 100 µM (inactive) | 98.4 µM (inactive) | 79.1 µM (inactive) | > 100 µM (inactive) | > 100 µM (inactive) | > 100 µM (inactive) | > 100 µM (inactive) | > 100 µM (inactive) | > 100 µM (inactive) | > 100 µM (inactive) | > 100 µM (inactive) | 75.2 µM (inactive) | 91.6 µM (inactive)
CSC1=C(C)S/C(=C\c2ccc(/C=C3\SC(C)=C(SC)S3)cc2)S1 | > 100 µM (inactive) | > 100 µM (inactive) | > 100 µM (inactive) | > 100 µM (inactive) | > 100 µM (inactive) | > 100 µM (inactive) | 41.6 µM (inactive) | > 100 µM (inactive) | > 100 µM (inactive) | 39.3 µM (inactive) | > 100 µM (inactive) | > 100 µM (inactive) | > 100 µM (inactive) | > 100 µM (inactive) | > 100 µM (inactive) | 5.33 µM (inactive) | > 100 µM (inactive) | > 100 µM (inactive) | 88.9 µM (inactive) | > 100 µM (inactive)
C/C(=N\NC(=S)NC(C)(C)C)c1nc2cccnc2[nH]1 | 7.74 µM (inactive) | 18.6 µM (inactive) | 7.93 µM (inactive) | 2.43 µM (inactive) | 3.47 µM (inactive) | 0.955 µM (active) | 16.3 µM (inactive) | 3.29 µM (inactive) | 3.06 µM (inactive) | 1.47 µM (inactive) | 4.49 µM (inactive) | 3.03 µM (inactive) | 8.26 µM (inactive) | 5.37 µM (inactive) | 8.71 µM (inactive) | 3.21 µM (inactive) | 2.57 µM (inactive) | 0.634 µM (active) | 2.8 µM (inactive) | 4.9 µM (inactive)
Cc1ccc2c(=O)cc(-c3cccc(F)c3)[nH]c2n1 | 0.0746 µM (active) | 0.052 µM (active) | 0.0327 µM (active) | 0.0504 µM (active) | 0.0251 µM (active) | 0.0446 µM (active) | 0.0218 µM (active) | 0.0476 µM (active) | 0.0755 µM (active) | 0.9 µM (active) | 0.0379 µM (active) | 0.0356 µM (active) | 0.0501 µM (active) | 0.0111 µM (active) | 0.64 µM (active) | 0.0728 µM (active) | 0.0461 µM (active) | 1.61 µM (inactive) | 0.0321 µM (active) | 0.0224 µM (active)
